The test system of data set [1] is Rev-mediated RRE export (RRE: Rev: Crm1 interactions). Description: Nucleocytoplasmic export assay (CAT assay) based on plasmid pDM128 in HeLa cells. Format: cell-based, HIV-1. The conditions noted are these: HeLa cells co-transfected with pDM128 and pSV2-Rev. As to the method: Lastly, multitarget-binding and inhibitory capabilities of hetero-SPCHs were examined. To evaluate the inhibition of Rev-mediated RRE export, a nucleocytoplasmic export assay based on plasmid pDM128 expressing RRE (see FIG. 23) was performed.
Referring to FIG. 24, as shown in a chloramphenicol acetyltransferase (CAT) assay (lane 3), co-transfection of pDM128 with pSV2-Rev (Rev-expressing plasmid) in HeLa cells enables an effective nucleocytoplasmic export of RRE RNA. In contrast, negligible CAT activity was observed when the cells were co-transfected with pBluescript KS(+) (negative control plasmid) (lane 2).
In addition, to confirm whether nucleocytoplasmic export mediated by RRE: Rev: Crm1 interactions could be inhibited by peptide-CNT hybrids, the cells were treated with hetero-(A&N)-SPCHs.
HeLa cells were incubated under 5% CO2 at 37° C. in DMEM supplemented with 10% FBS and 1% pen/strep. 4×10^4 of the incubated cells were distributed into a 48-well plate, and then incubated under 5% CO2 at 37° C. overnight. Subsequently, the resulting cells were washed with DPBS, and then a plasmid (total 250 ng; pDM128, pBluescript II KS (+), pSV2-Rev) complexed with 0.7 μL of a jetPEI DNA transfection reagent was added to each well. […]
The samples were normalized with the concentrations of proteins measured by a BCA assay (BCA protein assay kit; Pierce, USA). […]

For data set [2], the system named is cyc-ARM peptide on SWCNT (homo-ARM-SPCH) (HIV-1 (Rev ARM, synthetic)). Put plainly: competition. The conditions noted are these: hybrid concentration for complete exchange of 6 uM Rev from 100 nM RRE by EMSA; stated about 10,000 times stronger RRE binding than Rev. Background: In EMSA bound probe runs differently from free probe, usually more slowly.

Take `CCC(=C/[C@H](C)C/C=C/C(C)=C/[C@@H](C)C(=O)[C@@H](C)[C@H](O)[C@@H](C)C/C(C)=C/C(=O)O)/C=C/[C@@H]1OC(=O)C=C[C@@H]1C` [LMB, leptomycin B]: the “concentration required to completely inhibit the RRE export” value in data set [1] was found to be 100 nM.
Regarding “GGGCGAAUUGGAGCUCGCUAUGUUCCUUGGGUUCUUGGGAGCAGCAGGAAGCACUAUGGGCGCAGUGUCAUUGACGCUGACGGUACAGGCCAGACAAUUAUUGUCUGGUAUAGUGCAACAGCAGAACAAUUUGCUGAGGGCUAUUGAGGCGCAACAACAUCUGUUGCAACUCACAGUCUGGGGCAUCAAGCAGCUCCAGGCAAGAGUCCUGGCUGUGGAAAGAUACCUAAGGGAUCAACAGCUCCUAGGGAUG [full-length RRE RNA transcript (253 nt)]”, the binding in data set [2] came to 600 pM.
